For data set [1], the target named is T1, Acetylcholinesterase (Homo sapiens, UniProt P22303). Kind of data set: Binding affinity to AChE (unknown origin) assessed as inhibition constant.
Data set [2] in a line: Toxicity in mouse assessed as lethal dose. As to conditions: in vivo.
Data set [3] concerns the target Cholinesterase (Equus caballus, UniProt P81908). As to the kind of experiment: Inhibition of equine BChE.
The target in data set [4] is High affinity cGMP-specific 3',5'-cyclic phosphodiesterase 9A (Homo sapiens, UniProt O76083). Kind of data set: Inhibition of PDE9A (unknown origin).
Chain of High affinity cGMP-specific 3',5'-cyclic phosphodiesterase 9A (O76083 whole entry): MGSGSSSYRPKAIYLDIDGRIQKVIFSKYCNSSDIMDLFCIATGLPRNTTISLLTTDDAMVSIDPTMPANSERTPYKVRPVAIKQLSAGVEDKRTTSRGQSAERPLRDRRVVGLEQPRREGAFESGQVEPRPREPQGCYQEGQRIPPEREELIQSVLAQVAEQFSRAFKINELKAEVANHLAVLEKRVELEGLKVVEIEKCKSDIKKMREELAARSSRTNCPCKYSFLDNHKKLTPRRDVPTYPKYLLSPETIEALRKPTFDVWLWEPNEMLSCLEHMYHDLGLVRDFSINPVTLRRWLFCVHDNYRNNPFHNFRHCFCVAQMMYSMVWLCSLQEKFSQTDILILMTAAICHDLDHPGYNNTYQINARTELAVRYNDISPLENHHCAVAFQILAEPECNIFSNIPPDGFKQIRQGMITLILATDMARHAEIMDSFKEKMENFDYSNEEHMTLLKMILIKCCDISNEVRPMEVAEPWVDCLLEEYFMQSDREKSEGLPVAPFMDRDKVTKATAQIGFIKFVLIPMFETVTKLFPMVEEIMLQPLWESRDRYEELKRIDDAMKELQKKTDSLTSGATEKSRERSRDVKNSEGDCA
Data set [5] concerns the target T1, Acetylcholinesterase. As to the kind of experiment: Binding affinity to human AChE assessed as inhibition constant.
Data set [6] concerns the target T2, Cholinesterase (Homo sapiens, UniProt P06276). As to the kind of experiment: Binding affinity to human BChE assessed as inhibition constant.
The target of data set [7] is T1, Acetylcholinesterase. As to the kind of experiment: Inhibition of human whole red blood cells AChE using acetylthiocholine iodide as substrate incubated for 25 mins by Ellman's method. Background: Ellman's reagent forms a yellow product with free thiols.
The target in data set [8] is T3, Cholinesterases; ACHE & BCHE (Homo sapiens) (UniProt P06276+P22303). As to the kind of experiment: Selectivity index, ratio of IC50 for human whole red blood cells BChE to IC50 for human whole red blood cells AChE.
T3 sequence (P06276 whole entry, looked up): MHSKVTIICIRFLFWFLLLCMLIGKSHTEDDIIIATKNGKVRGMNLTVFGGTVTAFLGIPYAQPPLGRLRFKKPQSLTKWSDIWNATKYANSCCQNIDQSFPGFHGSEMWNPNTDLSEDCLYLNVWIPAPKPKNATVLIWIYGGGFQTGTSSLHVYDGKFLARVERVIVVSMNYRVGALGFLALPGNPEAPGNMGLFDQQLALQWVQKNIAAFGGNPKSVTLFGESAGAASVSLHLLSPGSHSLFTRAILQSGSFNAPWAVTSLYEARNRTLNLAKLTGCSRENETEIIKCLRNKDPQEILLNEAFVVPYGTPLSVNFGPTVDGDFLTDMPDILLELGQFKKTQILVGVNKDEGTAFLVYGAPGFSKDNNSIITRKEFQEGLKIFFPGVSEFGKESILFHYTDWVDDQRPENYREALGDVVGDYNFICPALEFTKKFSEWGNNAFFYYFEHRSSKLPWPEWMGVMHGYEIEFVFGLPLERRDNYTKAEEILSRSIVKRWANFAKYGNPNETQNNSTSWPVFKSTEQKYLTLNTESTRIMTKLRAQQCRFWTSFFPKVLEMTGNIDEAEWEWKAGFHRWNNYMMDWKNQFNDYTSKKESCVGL
T3 sequence (P22303 whole entry, looked up): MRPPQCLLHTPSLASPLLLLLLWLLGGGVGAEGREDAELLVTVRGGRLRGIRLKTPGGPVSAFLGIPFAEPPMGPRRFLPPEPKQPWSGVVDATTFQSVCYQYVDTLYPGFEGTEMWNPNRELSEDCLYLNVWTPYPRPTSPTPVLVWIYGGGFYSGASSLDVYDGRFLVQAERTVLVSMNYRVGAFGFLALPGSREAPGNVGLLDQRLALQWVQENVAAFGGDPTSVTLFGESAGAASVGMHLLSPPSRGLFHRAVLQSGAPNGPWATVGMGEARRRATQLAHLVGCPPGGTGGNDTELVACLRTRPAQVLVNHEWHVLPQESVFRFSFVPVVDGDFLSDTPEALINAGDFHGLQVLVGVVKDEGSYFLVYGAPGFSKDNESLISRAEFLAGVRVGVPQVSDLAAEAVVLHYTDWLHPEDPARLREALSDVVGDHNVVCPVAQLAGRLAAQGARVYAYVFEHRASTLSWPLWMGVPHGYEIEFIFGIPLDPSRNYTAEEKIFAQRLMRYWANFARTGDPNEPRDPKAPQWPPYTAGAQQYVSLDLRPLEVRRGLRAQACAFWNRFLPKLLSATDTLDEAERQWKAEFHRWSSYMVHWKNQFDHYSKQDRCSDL
The target of data set [9] is T2, Cholinesterase. Kind of data set: Inhibition of human whole red blood cells BChE using butyrylthiocholine iodide as substrate incubated for 25 mins by Ellman's method.
Data set [10] deals with Beta-secretase 1 (Homo sapiens, UniProt P56817). Kind of data set: Inhibition of BACE1 (unknown origin) using A-beta-PP as substrate by fluorescence based assay.
Chain of Beta-secretase 1 (P56817 whole entry): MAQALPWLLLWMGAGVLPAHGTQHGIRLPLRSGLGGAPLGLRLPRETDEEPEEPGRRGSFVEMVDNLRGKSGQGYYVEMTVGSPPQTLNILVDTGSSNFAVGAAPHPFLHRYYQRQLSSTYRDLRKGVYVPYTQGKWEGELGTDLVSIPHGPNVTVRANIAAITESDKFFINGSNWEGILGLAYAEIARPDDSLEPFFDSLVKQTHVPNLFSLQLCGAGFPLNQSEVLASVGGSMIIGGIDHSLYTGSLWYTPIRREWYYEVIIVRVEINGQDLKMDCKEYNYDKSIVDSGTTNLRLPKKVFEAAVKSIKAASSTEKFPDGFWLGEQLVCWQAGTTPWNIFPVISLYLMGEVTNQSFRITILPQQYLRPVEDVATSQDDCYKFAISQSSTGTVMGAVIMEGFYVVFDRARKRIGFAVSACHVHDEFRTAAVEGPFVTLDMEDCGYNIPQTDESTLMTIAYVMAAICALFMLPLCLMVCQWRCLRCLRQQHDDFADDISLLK
For data set [11], the target named is T1, Acetylcholinesterase. Kind of data set: Binding affinity to AChE (unknown origin) assessed as inhibition constant preincubated for 60 mins followed by substrate addition measured after 60 mins by colorimetric method.
For data set [12], the target named is T3, Cholinesterases; ACHE & BCHE (Homo sapiens). As to the kind of experiment: Selectivity index, ratio of IC50 for recombinant human serum AChE to IC50 for recombinant human serum BChE. The data set is classed as protein assay.
Data set [13] has as its target Fatty-acid amide hydrolase 1 (Rattus norvegicus, UniProt P97612). Kind of data set: Displacement of [14C]-ethanolamine from FAAH derived from rat brain membrane fraction preincubated for 20 mins followed by susbstrate addition by scintillation counting method. Format: cell membranes. (In general: Loss of bound radioactivity is the signal in a displacement assay; it reports binding, not function.)

Data set [14] addresses T4, Amine oxidase [flavin-containing] A (Homo sapiens, UniProt P21397).
T4 sequence (P21397 whole entry): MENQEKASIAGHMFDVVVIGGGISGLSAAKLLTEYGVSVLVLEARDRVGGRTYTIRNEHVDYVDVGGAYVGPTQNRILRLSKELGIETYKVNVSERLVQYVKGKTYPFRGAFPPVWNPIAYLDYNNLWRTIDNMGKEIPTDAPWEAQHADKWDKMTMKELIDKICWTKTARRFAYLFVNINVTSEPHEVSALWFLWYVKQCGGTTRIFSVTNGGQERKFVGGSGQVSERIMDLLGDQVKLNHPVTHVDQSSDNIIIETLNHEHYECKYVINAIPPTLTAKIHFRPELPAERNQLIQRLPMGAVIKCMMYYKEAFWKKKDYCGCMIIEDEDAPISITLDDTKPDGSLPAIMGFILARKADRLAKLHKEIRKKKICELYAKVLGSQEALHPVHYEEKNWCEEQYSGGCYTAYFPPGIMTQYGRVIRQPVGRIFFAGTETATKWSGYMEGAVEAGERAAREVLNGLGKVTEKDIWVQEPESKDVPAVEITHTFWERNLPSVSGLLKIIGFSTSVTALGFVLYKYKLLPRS
Kind of data set: Inhibition of MAO-A (unknown origin).

The target of data set [15] is T5, Acetylcholinesterase (Rattus norvegicus, UniProt P37136).
T5 sequence (P37136 whole entry): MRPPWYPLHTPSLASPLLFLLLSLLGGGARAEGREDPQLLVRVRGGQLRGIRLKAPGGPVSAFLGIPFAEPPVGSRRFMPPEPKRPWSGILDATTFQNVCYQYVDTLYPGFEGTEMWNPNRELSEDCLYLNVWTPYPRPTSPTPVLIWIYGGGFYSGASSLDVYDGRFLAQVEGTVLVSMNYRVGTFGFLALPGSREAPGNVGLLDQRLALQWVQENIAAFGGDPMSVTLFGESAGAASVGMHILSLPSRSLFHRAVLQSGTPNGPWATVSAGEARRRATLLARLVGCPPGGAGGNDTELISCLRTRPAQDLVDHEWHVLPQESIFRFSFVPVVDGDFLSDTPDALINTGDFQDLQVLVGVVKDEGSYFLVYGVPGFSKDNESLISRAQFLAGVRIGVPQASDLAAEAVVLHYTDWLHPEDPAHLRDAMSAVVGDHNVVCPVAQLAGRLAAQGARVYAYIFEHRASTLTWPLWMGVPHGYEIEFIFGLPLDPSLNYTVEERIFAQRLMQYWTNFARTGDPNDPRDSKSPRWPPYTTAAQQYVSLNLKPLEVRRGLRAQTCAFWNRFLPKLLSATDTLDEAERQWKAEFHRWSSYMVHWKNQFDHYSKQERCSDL
As to the kind of experiment: Inhibition of rat AChE by Ellman's method.

Data set [16] concerns the target T6, Amine oxidase [flavin-containing] B (Homo sapiens, UniProt P27338).
T6 sequence (P27338 whole entry): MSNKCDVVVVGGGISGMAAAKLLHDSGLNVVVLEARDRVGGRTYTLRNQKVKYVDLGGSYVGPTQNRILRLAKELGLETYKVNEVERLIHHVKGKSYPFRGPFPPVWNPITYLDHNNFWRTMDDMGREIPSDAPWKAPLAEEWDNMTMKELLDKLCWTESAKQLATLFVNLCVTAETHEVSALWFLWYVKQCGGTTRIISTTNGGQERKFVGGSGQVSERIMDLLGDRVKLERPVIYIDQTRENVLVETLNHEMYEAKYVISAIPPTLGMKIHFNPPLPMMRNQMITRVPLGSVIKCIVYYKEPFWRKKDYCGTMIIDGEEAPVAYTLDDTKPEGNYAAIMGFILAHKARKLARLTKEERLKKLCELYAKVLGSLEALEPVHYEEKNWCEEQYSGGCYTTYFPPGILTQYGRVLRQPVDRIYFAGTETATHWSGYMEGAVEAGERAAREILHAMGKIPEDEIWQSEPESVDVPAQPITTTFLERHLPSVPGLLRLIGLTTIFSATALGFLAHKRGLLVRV
Kind of data set: Inhibition of MAO-B (unknown origin).

The target in data set [17] is T2, Cholinesterase. Kind of data set: Inhibition of recombinant human serum BChE using acetylthiocholine iodide as substrate preincubated for 20 mins followed by substrate addition by Ellman's method.
For data set [18], the target named is T3, Cholinesterases; ACHE & BCHE (Homo sapiens). Kind of data set: Selectivity index, ratio of IC50 for recombinant human serum BChE to IC50 for recombinant human serum AChE. Format: protein assay.
Data set [19] addresses T1, Acetylcholinesterase. As to the kind of experiment: Inhibition of recombinant human serum AChE using acetylthiocholine iodide as substrate preincubated for 20 mins followed by substrate addition by Ellman's method.
In data set [20] the target is T2, Cholinesterase. As to the kind of experiment: Inhibition of recombinant human serum BChE using butyrylthiocholine iodide as substrate preincubated for 20 mins followed by substrate addition measured after 5 mins by Ellman's method.
Data set [21] deals with T1, Acetylcholinesterase. As to the kind of experiment: Inhibition of recombinant human serum AChE using acetylthiocholine iodide as substrate preincubated for 20 mins followed by substrate addition measured after 5 mins by Ellman's method.
The target of data set [22] is Carbonic anhydrase 2 (Homo sapiens, UniProt P00918). As to the kind of experiment: Binding affinity to human CA2 assessed as inhibition constant using p-nitrophenylacetate as substrate by spectrophotometry.
In data set [23] the target is Carbonic anhydrase 1 (Homo sapiens, UniProt P00915). Kind of data set: Binding affinity to human CA1 assessed as inhibition constant using p-nitrophenylacetate as substrate by spectrophotometry.
Chain of Carbonic anhydrase 1 (P00915 whole entry): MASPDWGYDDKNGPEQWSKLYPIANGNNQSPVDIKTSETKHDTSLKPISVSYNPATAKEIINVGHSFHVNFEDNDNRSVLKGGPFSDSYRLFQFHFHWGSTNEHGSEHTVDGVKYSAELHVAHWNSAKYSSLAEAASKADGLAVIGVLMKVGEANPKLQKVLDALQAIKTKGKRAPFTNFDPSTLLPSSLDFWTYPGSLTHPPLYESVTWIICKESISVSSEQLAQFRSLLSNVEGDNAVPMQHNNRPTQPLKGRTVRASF
The target in data set [24] is T1, Acetylcholinesterase. Kind of data set: Binding affinity to AChE (unknown origin) assessed as inhibition constant using acetylthiocholine iodide as substrate preincubated for 10 mins followed by substrate addition by Ellman's method.

Each structure is given as a SMILES string.

T1 sequence (P22303 whole entry): as the sequence (P22303 whole entry, looked up) above
T2 sequence (P06276 whole entry): as the sequence (P06276 whole entry, looked up) above
Chain of Cholinesterase (Equus caballus, UniProt P81908) (P81908 whole entry): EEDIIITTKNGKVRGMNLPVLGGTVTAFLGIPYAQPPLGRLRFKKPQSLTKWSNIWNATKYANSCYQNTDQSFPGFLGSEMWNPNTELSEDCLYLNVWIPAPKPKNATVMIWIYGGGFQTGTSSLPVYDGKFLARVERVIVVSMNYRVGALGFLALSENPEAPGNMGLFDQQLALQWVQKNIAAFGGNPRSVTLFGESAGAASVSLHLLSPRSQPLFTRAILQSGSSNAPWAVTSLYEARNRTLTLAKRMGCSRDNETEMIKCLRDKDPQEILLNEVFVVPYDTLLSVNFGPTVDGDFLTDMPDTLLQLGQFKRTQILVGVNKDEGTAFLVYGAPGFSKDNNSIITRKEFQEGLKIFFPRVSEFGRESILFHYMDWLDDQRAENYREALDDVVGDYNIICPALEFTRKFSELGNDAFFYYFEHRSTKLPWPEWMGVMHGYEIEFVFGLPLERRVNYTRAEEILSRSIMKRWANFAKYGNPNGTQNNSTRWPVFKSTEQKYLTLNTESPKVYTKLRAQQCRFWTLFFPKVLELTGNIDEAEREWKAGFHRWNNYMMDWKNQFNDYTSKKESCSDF
Chain of Fatty-acid amide hydrolase 1 (P97612 whole entry): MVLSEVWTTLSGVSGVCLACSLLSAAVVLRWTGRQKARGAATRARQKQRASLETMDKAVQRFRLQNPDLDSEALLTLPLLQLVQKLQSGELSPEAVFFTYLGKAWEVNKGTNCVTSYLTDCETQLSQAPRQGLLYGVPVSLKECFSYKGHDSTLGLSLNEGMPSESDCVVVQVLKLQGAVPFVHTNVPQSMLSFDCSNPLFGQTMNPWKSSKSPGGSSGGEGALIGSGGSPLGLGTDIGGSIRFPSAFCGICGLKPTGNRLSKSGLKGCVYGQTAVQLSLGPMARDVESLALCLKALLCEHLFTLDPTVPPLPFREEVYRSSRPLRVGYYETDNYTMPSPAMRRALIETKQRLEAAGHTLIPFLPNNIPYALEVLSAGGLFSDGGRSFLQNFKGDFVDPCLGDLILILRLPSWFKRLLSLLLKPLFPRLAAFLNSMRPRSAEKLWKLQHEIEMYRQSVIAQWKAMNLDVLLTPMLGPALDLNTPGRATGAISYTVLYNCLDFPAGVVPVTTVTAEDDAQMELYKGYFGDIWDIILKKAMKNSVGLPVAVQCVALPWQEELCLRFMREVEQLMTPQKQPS

One may read the Ki as a dissociation constant, usually derived from enzyme kinetics or from competition with a known ligand. The term LD50 denotes the dose at which mortality reaches 50%. For `CCCCCCCNC(=O)Oc1ccc2c(c1)[C@]1(C)CCN(C)[C@@H]1N2C` [EPTASTIGMINE], in data set [1], the Ki is 0.1 µM. Besides, the median lethal dose (LD50) in data set [2] stood at 35 mg/kg.

The term IC50 denotes the concentration that gives 50% inhibition. On to `CCN(C)C(=O)Oc1ccc(CNc2nc3c(cnn3C3CCCC3)c(=O)[nH]2)cc1OC`, for which the results for the IC50 in [3] and in data set [4] were 3.3 µM and 0.014 µM, respectively.

In the case of `O=C(Nc1ccccc1)OC1CN2CCC1CC2` (stereo not given), the Ki in data set [5] was found to be 1 µM; in data set [6] it was 3 µM.

For `COc1ccc(NC(=O)Oc2ccc3c(c2)[C@]2(O)CCN(C(C)=O)[C@@H]2N3)cc1`, the IC50 in data set [7] is > 100 µM; in data set [9], 2.31 µM. The Ratio IC50 in data set [8] was > 43.

On to `CC1CCCCN1CCCNC(=O)c1cc(NC(=O)OC(C)(C)C)ccc1O` (stereo not given), for which the midpoint of inhibition in [10], the IC50, lay at 0.0154 µM. The Ki in data set [11] came out at 0.17 µM.

For the molecule `CN(CCCOc1ccc2ccc(=O)oc2c1)Cc1cccc(OC(=O)NC2CCCCC2)c1`, in data set [12], the Ratio IC50 was determined as 2.98. The molecule further had a half-maximal inhibitory concentration (IC50) in data set [13] of 0.00133 µM.

Turning to `CC/N=C1\CCc2c1n(C)c1ccc(OC(=O)NC)c(Br)c21`, the results for the IC50 in [14], in data set [15] and in data set [16] were 0.21 µM, 0.14 µM and > 1000 µM, respectively.

On to `COc1cc(CNc2nc3c(cnn3C3CCCC3)c(=O)[nH]2)ccc1OC(=O)N(C)C`, for which the IC50 in [3] turned out to be 0.97 µM; in [4] it was 0.017 µM.

For `CNC(=O)Oc1cccc(CN(C)CCCCCCCOc2ccc(-c3cc4ccccc4oc3=O)cc2)c1`, the IC50 in data set [17] turned out to be 0.0594 µM; in data set [19], 0.0012 µM. Further, in data set [18], the Ratio IC50 worked out at 49.

Regarding `CNC(=O)Oc1cccc(CN(C)CCCCCCOc2ccc3c(c2)O/C(=C\c2cc(OC)c(OC)c(OC)c2)C3=O)c1`, the Ratio IC50 in [18] came to 261. Further, the IC50 came to 0.136 µM in data set [20] and 0.00052 µM in data set [21].

In the case of `CCN(CC)C(=O)OC1C[N+]2(C)CCC1CC2` (stereo not given), the Ki in [5] came to 3.5 µM; in data set [6], 1.5 µM.

`CNC(=O)Oc1cccc(CN(C)CCCCCCCOc2ccc(-c3cc(=O)c4ccccc4o3)cc2)c1`: the IC50 in data set [17] worked out at 0.0702 µM; in data set [19], 0.00073 µM. Also, in data set [18], the Ratio IC50 amounted to 96.

As to `COc1cccc2c1CCCC2NS(=O)(=O)NC(=O)OCc1ccccc1` (stereo not given), the results for the IC50 in [22], in data set [23] and in data set [24] were 0.00494 µM, 0.00449 µM and 0.000209 µM, respectively.

Take `CNC(=O)Oc1cccc(CN(C)CCCCCCOc2ccc(C(=O)/C=C/c3cc(OC)c(OC)c(OC)c3)c(O)c2)c1`: the Ratio IC50 in data set [18] came out at 23. The values for the IC50 in data set [20] and in data set [21] were 0.0302 µM and 0.00133 µM, respectively.

For the origin of these results see ChEMBL document CHEMBL5214927, “Recent advance on carbamate-based cholinesterase inhibitors as potential multifunctional agents against Alzheimer's disease” (Eur J Med Chem, 2022).
